This note sets out measurements from paper PMC8308780, “Antiviral Activity of Isoquinolone Derivatives against Influenza Viruses and Their Cytotoxicity” (Pharmaceuticals, 2021).

Data set [1] deals with A/Puerto Rico/8/34 (H1N1; PR8). The data set can be described thus: microbe, parasite or virus in culture. It counts as cell-based. The note with it: Influenza A virus, read-out: EC50 against Influenza Virus PR8.
Data set [2] in a line: in vitro. The note with it: dog.
Data set [3] concerns A/Hong Kong/8/68 (H3N2; HK). Briefly: microbe, parasite or virus in culture. To be noted: Influenza A virus, read-out: EC50 against Influenza Virus HK. It counts as cell-based.
A further data set has as its system B/Lee/40 (Lee). Briefly: microbe, parasite or virus in culture. Format: cell-based, influenza B virus. To be noted: unidentified influenza virus, MDCK, read-out: EC50 against Influenza Virus Lee.
The subject of data set [4] is PR8 virus. The note with it: 3 or 30 µM, 5 h post-infection.
Protocol: For fluorescence microscopy, PR8 virus-infected MDCK cells (MOI, 3) seeded onto 4-well slides (8.5 × 10^4 cells per well) were treated with DMSO (delivery vehicle), compound 1, or RBV at 33 °C for 5 h. After fixing and permeabilization, viral NP was visualized using an anti-NP antibody (Santa Cruz Biotechnology, Santa Cruz, CA, USA), followed by an Alexa 488-conjugated goat anti-mouse IgG (Invitrogen) [10]. Cells were counterstained with a Vectashield mounting medium containing DAPI (Vector Laboratories, Burlingame, CA, USA). Images were captured under a Zeiss LSM 700 confocal microscope (Carl Zeiss, Thornwood, NY, USA).
Data set [5] concerns the target influenza A viral polymerase (Influenza A virus, UniProt P03428+P03431+P03433). It counts as cell-based.
A short description of data set [6]: in vitro. To be noted: dog. This is another data set of the same source.
For data set [7], the system named is MDCK cells. Briefly: Fluorescein diacetate-based cell viability assay, mock-infected cells (cytotoxicity).
The test system of data set [8] is influenza A and B viruses (PR8, HK, Lee). Briefly: Cytopathic effect assay, values given across the viral strains tested. Format: cell-based. The note with it: Influenza A virus. A general note: Protection from cytopathic effect is a common read-out in antiviral testing.
The test system of data set [9] is PR8 virus. It counts as cell-based, influenza A virus.
In data set [10] the test system is PR8 virus. The note with it: MDCK cells, subtoxic concentrations, 1 day.
Data set [11] deals with PR8 virus. The data set can be described thus: microbe, parasite or virus in culture. It counts as cell-based, influenza A virus. To be noted: for antiviral activity on exposure during viral adsorption: 0–1 h at 4 °C, compound 1 10 µM, EGCG 1 µM.
The subject of data set [12] is MDCK cells. To be noted: 2-day treatment, concentrations above 0.41 µM.
The target of a further data set is NA (Influenza A virus, UniProt P03468). The data set can be described thus: NA activity assay (NA-XTD kit) with purified PR8 virus. Format: biochemical, influenza A virus PR8. The note with it: maximum concentration of 30 µM.
The mark [13] stands for this setting: A/Puerto Rico/8/34 (H1N1), MDCK cells.
[14] abbreviates: A/Hong Kong/8/68 (H3N2), MDCK cells.
The mark [15] stands for this setting: PR8, HK and Lee strains, MDCK cells, read-out: EC50 values, range across influenza A and B viruses.

Structures can show the parent of a compound that is named as a salt. Where two headings read alike, the source gives them in different places.

Sequence of NA (P03468 whole entry): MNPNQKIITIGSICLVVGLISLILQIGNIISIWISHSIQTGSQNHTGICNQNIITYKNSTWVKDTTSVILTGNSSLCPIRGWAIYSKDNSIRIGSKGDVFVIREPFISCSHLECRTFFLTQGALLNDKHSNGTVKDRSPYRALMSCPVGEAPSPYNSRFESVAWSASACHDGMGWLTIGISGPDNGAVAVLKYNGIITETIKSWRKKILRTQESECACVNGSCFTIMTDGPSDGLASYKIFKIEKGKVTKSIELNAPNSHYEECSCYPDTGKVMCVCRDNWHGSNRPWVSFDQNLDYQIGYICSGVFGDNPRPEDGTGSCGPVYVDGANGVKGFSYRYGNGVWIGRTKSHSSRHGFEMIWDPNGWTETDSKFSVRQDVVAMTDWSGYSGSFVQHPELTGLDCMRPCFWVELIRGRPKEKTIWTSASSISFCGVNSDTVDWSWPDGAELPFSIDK
Protocol for NA: An NA activity assay was performed by using the NA-XTD Influenza Neuraminidase assay kit (Applied Biosystems, Foster City, CA, USA) [25, 26]. The influenza A virus PR8 (2.8 × 10^3 PFU) was mixed with the same volume of compounds at 37 °C for 20 min. After an addition of NA-XTD substrate, the mixture was incubated at room temperature for 30 min. The luminescent signal was maximized by the addition of an NA-XTD accelerator according to the manufacturer’s instructions and read using a microplate luminometer (Centro LB960 system; Berthold Technologies, Bad Wildbad, Germany). Half maximum inhibitory concentrations (IC50s) were determined using GraphPad Prism 8.4.2.

As to `NC12CC3CC(CC(C3)C1)C2` [AMT, amantadine hydrochloride, reference compound], the EC50 (in general, the concentration giving half of the maximal effect) was above 300 µM in [1] (setting [13]), 1.6 µM in [3] (setting [14]) and above 300 µM in the data set on B/Lee/40 (Lee). For the same molecule, the CC50 at 3 days in “in vitro [2]” (mock-infected MDCK cells) is above 300 µM.
In the case of `CCc1cc2c(cc1-c1cc3ccc(OC)c(OC)c3c(=O)n1C)OCO2` [Compound 1, 3-(6-ethylbenzo[d][1,3]dioxol-5-yl)-7,8-dimethoxy-2-methylisoquinolin-1(2H)], the “NP-positive cells (confocal microscopy)” value with PR8 virus [4] is listed as “few or no NP-positive cells”. Moreover, in data set [5], the viral polymerase activity entry was “suppressed viral RNA replication/transcription”. Further, the viability – broadly, a read-out of living cells in per cent, often relative to untreated cells – at 1 day, 11.11 µM in “in vitro [6]” amounted to 80%. For the same molecule, the EC50 was 0.2 µM in [1] (setting [13]), 0.2 to 0.6 µM in data set [8] (setting [15]), 0.3 µM in data set [3] (setting [14]) and 0.6 µM with B/Lee/40 (Lee). The molecule also came in with a cell death in the data set on MDCK cells [7] (incubation for 2 days, concentrations > 0.41 µM, fluorescein diacetate) above 40%. Moreover, the “progeny virus production (plaque assay)” value in the data set on PR8 virus [9] is recorded as “reducing the number of viral progeny released into the culture supernatant”. Further, in the data set “in vitro [2]”, the CC50 at 3 days came to 39 µM. Besides, in the data set with PR8 virus [10], the “viral protein expression (Western blot)” value was “reducing the expression of viral proteins, including NP and HA”. The “antiviral activity on exposure during viral adsorption” value in the data set with PR8 virus [11] was “failed to induce antiviral activity”. The inhibition (usually the share of the control response that was lost under treatment) at 10 µM in the data set on PR8 virus [11] (Influenza A virus, PR8, 7 h, read-out: inhibition of plaque formation) is above 80%. Besides, the “cell death (MTT)” value in the data set on MDCK cells [12] was above 40%.
In the case of `O=c1[nH]c(-c2ccccc2)cc2ccccc12` [Compound 2, 3-phenylisoquinolone], the values for the EC50 (in [1] (setting [13]); in data set [3] (setting [14]); with B/Lee/40 (Lee)) were 45 µM, 73.4 µM and 88.1 µM, respectively. Besides, the CC50 at 3 days in “in vitro [2]” is above 300 µM.
The corresponding values for `O=c1[nH]c(-c2ccccc2O)cc2ccccc12` [Compound 3] are 57 µM, 103 µM, 65 µM and above 300 µM.
The corresponding values for `O=c1[nH]c(-c2ccccc2CO)cc2ccccc12` [Compound 4] are 52.4 µM, 81.3 µM, 17.2 µM and above 300 µM.
The corresponding values for `COc1ccccc1-c1cc2ccccc2c(=O)[nH]1` [Compound 5] are above 120 µM, above 120 µM, 1.4 µM and 120 µM.
Consider `Cc1cccc(-c2cc3c(N(C)C)cccc3c(=O)[nH]2)c1` [Compound 6], for which the EC50 in data set [1] (setting [13]) was above 300 µM; in data set [3] (setting [14]) it was above 300 µM; in the data set with B/Lee/40 (Lee), 58.7 µM. In addition, the CC50 at 3 days in the data set “in vitro [2]” was above 300 µM.
With `Cc1ccc(-c2cc3c(N(C)C)cccc3c(=O)[nH]2)cc1` [Compound 7], the EC50 (in [1] (setting [13]); in data set [3] (setting [14]); in the data set with B/Lee/40 (Lee)) was above 300 µM throughout. Further, the CC50 at 3 days in the data set “in vitro [2]” is above 300 µM.
Consider `CN(C)c1cccc2c(=O)[nH]c(-c3ccc(Cl)cc3)cc12` [Compound 8], for which the EC50 (in [1] (setting [13]); in data set [3] (setting [14]); in the data set on B/Lee/40 (Lee)) was above 300 µM throughout. This molecule also displayed a CC50 at 3 days in “in vitro [2]” above 300 µM.
For `CN(C)c1cccc2c(=O)[nH]c(-c3ccc(Br)cc3)cc12` [Compound 9], the half-maximal effective concentration (EC50) (in data set [1] (setting [13]); in data set [3] (setting [14]); in the data set with B/Lee/40 (Lee)) was above 300 µM each time. In addition, the CC50 at 3 days in the data set “in vitro [2]” was above 300 µM.
Take `COc1ccc(-c2cc3cc(C)ccc3c(=O)[nH]2)cc1OC` [Compound 11]: the figures for the EC50 (in data set [1] (setting [13]); in data set [3] (setting [14]); with B/Lee/40 (Lee)) were 32.3 µM, 94.5 µM and 74.8 µM, respectively. This molecule also registered a CC50 at 3 days in “in vitro [2]” above 300 µM.
Consider `Cc1ccc2c(=O)[nH]c(-c3c(C)cccc3C)cc2c1` [Compound 12], for which the EC50 (in [1] (setting [13]); in [3] (setting [14]); in the data set on B/Lee/40 (Lee)) was above 300 µM throughout. For the same molecule, the CC50 at 3 days in “in vitro [2]” is above 300 µM.
Consider `COc1ccc(-c2[nH]c(=O)c3ccc(C)cc3c2Br)cc1OC` [Compound 13], for which the EC50 was 177 µM in [1] (setting [13]), 172 µM in data set [3] (setting [14]) and above 300 µM in the data set with B/Lee/40 (Lee). In “in vitro [2]”, this molecule displayed a CC50 at 3 days above 300 µM.
With `Cc1ccc2c(=O)[nH]c(-c3c(C)cccc3C)c(Br)c2c1` [Compound 14], the EC50 (in data set [1] (setting [13]); in data set [3] (setting [14]); with B/Lee/40 (Lee)) was above 300 µM in each case. Also, the CC50 at 3 days in “in vitro [2]” is above 300 µM.
In the case of `Cn1c(-c2ccccc2C=O)cc2ccccc2c1=O` [Compound 15], the EC50 (in data set [1] (setting [13]); in [3] (setting [14]); in the data set on B/Lee/40 (Lee)) was above 300 µM throughout. In the data set “in vitro [2]”, the CC50 at 3 days is above 300 µM.
Regarding `Cn1c(-c2ccccc2O)c(C=O)c2ccccc2c1=O` [Compound 16], the EC50 (in data set [1] (setting [13]); in [3] (setting [14]); in the data set with B/Lee/40 (Lee)) was above 148 µM each time. For the same molecule, the CC50 at 3 days in the data set “in vitro [2]” is 148 µM.
Turning to `CCc1cc2c(cc1-c1cc3ccc(OC)c(O)c3c(=O)n1C)OCO2` [Compound 17], the EC50 in [1] (setting [13]) was 36.8 µM; in data set [8] (influenza A strains only (PR8, HK), read-out: EC50 values, range against influenza A viral strains), 5.8 to 36.8 µM; in data set [3] (setting [14]) it was 5.8 µM; in the data set on B/Lee/40 (Lee), above 109 µM. This molecule also gave a CC50 at 3 days in “in vitro [2]” of 109 µM.
For `C=Cc1cc2c(cc1-c1cc3ccc(OC)c(OC)c3c(=O)n1C)OCO2` [Compound 18], the EC50 in data set [1] (setting [13]) came out at 2.8 µM; in [3] (setting [14]), 1.4 µM; in the data set on B/Lee/40 (Lee), 1.1 µM. Besides, in the data set “in vitro [2]”, the CC50 at 3 days came out at 40.3 µM.
Turning to `COc1ccc2cc(-c3cc4c(cc3CCO)OCO4)n(C)c(=O)c2c1OC` [Compound 19], the EC50 in data set [1] (setting [13]) was 59.9 µM; in data set [8] (setting [15]), 22.2 to 59.9 µM; in [3] (setting [14]) it was 46.2 µM; in the data set with B/Lee/40 (Lee), 22.2 µM. The same molecule returned a CC50 at 3 days in the data set “in vitro [2]” above 300 µM.
For `COc1ccc2cc(-c3cc4c(cc3CCO)OCO4)[nH]c(=O)c2c1OC` [Compound 20], the EC50 in data set [1] (setting [13]) is 29.8 µM; in data set [3] (setting [14]) it was 11.9 µM; in the data set on B/Lee/40 (Lee), 15.6 µM. Moreover, the cell death result in the data set with MDCK cells [7] (300 µM) is “approximately 30%”. In the data set “in vitro [2]”, the CC50 at 3 days was above 300 µM.
With `COc1cc2cc(-c3ccccc3)[nH]c(=O)c2cc1OC` [Compound 21, 6,7-dimethoxy-3-phenylisoquinolone], the viral polymerase activity result in [5] was “efficiently suppressed viral polymerase activity”. In addition, the EC50 in [1] (setting [13]) is 18.5 µM; in data set [8] (setting [15]), 9.9 to 18.5 µM; in data set [3] (setting [14]), 10.9 µM; in the data set with B/Lee/40 (Lee), 9.9 µM. For the same molecule, in the data set with PR8 virus [9], the “progeny virus production (plaque assay)” value was “inhibited progeny virus production into MDCK culture supernatants in a dose-dependent manner”. The molecule also registered a CC50 at 3 days in the data set “in vitro [2]” above 300 µM. Further, at NA, the “inhibitory effect on NA activity” value was “no inhibitory effect”.
For `COc1cc2cc(-c3ccccc3O)[nH]c(=O)c2cc1OC` [Compound 22], the EC50 (in data set [1] (setting [13]); in [3] (setting [14]); in the data set with B/Lee/40 (Lee)) was above 300 µM each time. Also, the CC50 at 3 days in “in vitro [2]” is above 300 µM.
As for `COc1cc2cc(-c3cccc(C)c3)[nH]c(=O)c2cc1OC` [Compound 23], the EC50 (in data set [1] (setting [13]); in data set [3] (setting [14]); in the data set on B/Lee/40 (Lee)) was above 300 µM each time. For the same molecule, the CC50 at 3 days in the data set “in vitro [2]” is above 300 µM.
For the molecule `CCC(CC)O[C@@H]1C=C(C(=O)O)C[C@H](N)[C@H]1NC(C)=O` [OSV-C, oseltamivir carboxylate, reference compound], the EC50 in data set [1] (setting [13]) was determined as 0.05 µM; in [3] (setting [14]) it was 0.03 µM; with B/Lee/40 (Lee), 0.37 µM. For the same molecule, the CC50 at 3 days in the data set “in vitro [2]” is above 300 µM.
Consider `NC(=O)c1ncn([C@@H]2O[C@H](CO)[C@@H](O)[C@H]2O)n1` [RBV, ribavirin, reference compound], for which the EC50 came out at 25 µM in data set [1] (MDCK); 43.8 µM in [3] (H3N2, MDCK); 48.4 µM in the data set with B/Lee/40 (Lee). The molecule further had a CC50 at 3 days in “in vitro [2]” (mock-infected MDCK cells) above 300 µM.
Take “(-)-epigallocatechin-3-gallate [EGCG, reference compound]”: the “antiviral activity on exposure during viral adsorption” value in the data set with PR8 virus [11] is “blocked PR8 infection completely”.
